In general, IC50 refers to the point on the concentration scale where inhibition reaches its midpoint.

Consider 1 compound from ChEMBL document CHEMBL5518224, “Rational Design of PARP1/c-Met Dual Inhibitors for Overcoming PARP1 Inhibitor Resistance Induced by c-Met Overexpression” (J Med Chem, 2024).

The target in data set [1] is Poly [ADP-ribose] polymerase 1 (Homo sapiens, UniProt P09874). The data set can be described thus: Inhibition of PARP1 (unknown origin) using histone as substrate incubated for 45 mins by absorbance based analysis.
Poly [ADP-ribose] polymerase 1, sequence (P09874 whole entry): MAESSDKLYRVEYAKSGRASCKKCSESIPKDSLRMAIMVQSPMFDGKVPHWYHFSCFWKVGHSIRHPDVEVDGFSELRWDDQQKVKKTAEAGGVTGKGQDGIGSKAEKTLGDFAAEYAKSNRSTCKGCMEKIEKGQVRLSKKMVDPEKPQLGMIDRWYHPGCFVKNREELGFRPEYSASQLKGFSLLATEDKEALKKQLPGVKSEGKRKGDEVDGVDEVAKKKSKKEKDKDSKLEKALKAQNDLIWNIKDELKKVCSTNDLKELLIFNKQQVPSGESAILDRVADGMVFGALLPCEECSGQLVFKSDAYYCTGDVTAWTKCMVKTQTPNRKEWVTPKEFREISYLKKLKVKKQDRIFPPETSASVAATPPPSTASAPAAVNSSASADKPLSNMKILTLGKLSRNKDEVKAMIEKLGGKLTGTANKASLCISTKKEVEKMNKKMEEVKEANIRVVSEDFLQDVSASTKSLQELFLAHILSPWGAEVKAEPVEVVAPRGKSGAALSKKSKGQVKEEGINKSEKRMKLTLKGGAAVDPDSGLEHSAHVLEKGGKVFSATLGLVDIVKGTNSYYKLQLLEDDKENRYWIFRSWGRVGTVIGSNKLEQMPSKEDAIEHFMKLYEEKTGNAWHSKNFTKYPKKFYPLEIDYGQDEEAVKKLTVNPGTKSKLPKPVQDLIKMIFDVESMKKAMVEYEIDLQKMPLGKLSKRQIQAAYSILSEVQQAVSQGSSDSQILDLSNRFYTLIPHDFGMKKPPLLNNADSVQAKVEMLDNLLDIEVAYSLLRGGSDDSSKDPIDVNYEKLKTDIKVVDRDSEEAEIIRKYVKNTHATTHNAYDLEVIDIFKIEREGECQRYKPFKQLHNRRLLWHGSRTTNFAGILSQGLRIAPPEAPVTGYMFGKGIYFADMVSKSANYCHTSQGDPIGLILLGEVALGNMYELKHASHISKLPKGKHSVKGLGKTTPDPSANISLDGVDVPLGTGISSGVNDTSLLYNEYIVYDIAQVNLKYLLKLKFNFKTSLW
Data set [2] addresses Hepatocyte growth factor receptor (Homo sapiens, UniProt P08581). The data set can be described thus: Inhibition of c-Met (unknown origin) by HTRF method. A general note: In TR-FRET formats the signal depends on donor and acceptor labels being close together.
In data set [3] the test system is MDA-MB-231. The data set is described as follows: Antiproliferative activity against human MDA-MB-231 cells harboring wild type BRCA and c-Met amplification assessed as inhibition of cell growth incubated for 7 days by MTT assay. The data set is classed as functional, cell-based. Particulars: MDA-MB-231, 168 h.
Data set [4] deals with MDA-MB-468. The data set can be described thus: Antiproliferative activity against human MDA-MB-468 cells harboring wild type BRCA1/2, HR-proficient and non-c-Met amplification assessed as inhibition of cell growth incubated for 7 days by MTT assay. The data set is classed as functional, cell-based. The conditions noted are these: MDA-MB-468, 168 h. (Tetrazolium dyes change colour on reduction, which living cells bring about.)

The nature of data set [5]: Antiproliferative activity against human Olaparib-resistant HCC1937 cells harboring BRCA1 mutant and PARP1 overexpression assessed as inhibition of cell growth incubated for 7 days by MTT assay. It is filed as functional, cell-based. The conditions noted are these: Olaparib-resistant HCC1937, 168 h.
For data set [6], the system named is Olaparib-resistant HCT116. The data set is described as follows: Antiproliferative activity against human Olaparib-resistant HCT116 cells harboring BRCA2 mutant assessed as inhibition of cell growth incubated for 7 days by MTT assay. The data set is classed as functional, cell-based. Particulars: Olaparib-resistant HCT116, 168 h.
Data set [7] relates to MDA-MB-231. The data set can be described thus: Potency index, ratio of olaparib IC50 to test compound IC50 for antiproliferative activity against human MDA-MB-231 cells harboring wild type BRCA and c-Met amplification assessed as inhibition of cell growth incubated for 7 days by MTT assay. The conditions noted are these: time 7 day. It is filed as functional.
The nature of data set [8]: Cytotoxicity against NRK cells assessed as inhibition of cell growth incubated for 72 hrs by MTT assay. It is filed as toxicity, cell-based. Particulars: rat.
Data set [9] relates to MDA-MB-468. The data set is described as follows: Potency index, ratio of olaparib IC50 to test compound IC50 for antiproliferative activity against human MDA-MB-468 cells harboring wild type BRCA1/2, HR-proficient and non-c-Met amplification assessed as inhibition of cell growth incubated for 7 days by MTT assay. It is filed as functional. Particulars: time 7 day.
For data set [10], the system named is MDA-MB-468. The data set is described as follows: Potency index, ratio of crizotinib IC50 to test compound IC50 for antiproliferative activity against human MDA-MB-468 cells harboring wild type BRCA1/2, HR-proficient and non-c-Met amplification assessed as inhibition of cell growth incubated for 7 days by MTT assay. It is filed as functional. The conditions noted are these: time 7 day.

The nature of data set [11]: Potency index, ratio of olaparib IC50 to test compound IC50 for antiproliferative activity against human Olaparib-resistant HCC1937 cells harboring BRCA1 mutant and PARP1 overexpression assessed as inhibition of cell growth incubated for 7 days by MTT assay. It is filed as functional. The conditions noted are these: time 7 day.
The test system of data set [12] is Olaparib-resistant HCT116. The data set is described as follows: Potency index, ratio of olaparib IC50 to test compound IC50 for antiproliferative activity against human Olaparib-resistant HCT116 cells harboring BRCA2 mutant assessed as inhibition of cell growth incubated for 7 days by MTT assay. Particulars: time 7 day. It is filed as functional.
For data set [13], the system named is MDA-MB-231. The data set is described as follows: Induction of apoptosis in human MDA-MB-231 cells assessed as live cells at 0.5 uM incubated for 4 days by Annexin V-FITC/PI staining based flow cytometry analysis (reference value: 94.6%). It is filed as functional. The conditions noted are these: time 4 day. On the technique in general: In flow cytometry, cells or beads pass a laser one at a time.

Data set [14] deals with MDA-MB-231. The data set is described as follows: Induction of apoptosis in human MDA-MB-231 cells assessed as early apoptotic cells at 0.5 uM incubated for 4 days by Annexin V-FITC/PI staining based flow cytometry analysis (reference value: 3.88%). It is filed as functional. Particulars: time 4 day.
For data set [15], the system named is MDA-MB-231. The data set is described as follows: Induction of apoptosis in human MDA-MB-231 cells assessed as late apoptotic cells at 0.5 uM incubated for 4 days by Annexin V-FITC/PI staining based flow cytometry analysis (reference value: 0.81%). Particulars: time 4 day. It is filed as functional.
Data set [16] relates to MDA-MB-231. The data set is described as follows: Induction of apoptosis in human MDA-MB-231 cells assessed as dead cells at 0.5 uM incubated for 4 days by Annexin V-FITC/PI staining based flow cytometry analysis (reference value: 0.72%). The conditions noted are these: time 4 day. The data set is classed as functional.
For data set [17], the system named is MDA-MB-231. The data set is described as follows: Induction of apoptosis in human MDA-MB-231 cells assessed as live cells at 1 uM incubated for 4 days by Annexin V-FITC/PI staining based flow cytometry analysis (reference value: 94.6%). The data set is classed as functional. Particulars: time 4 day.
Data set [18] deals with MDA-MB-231. The data set is described as follows: Induction of apoptosis in human MDA-MB-231 cells assessed as early apoptotic cells at 1 uM incubated for 4 days by Annexin V-FITC/PI staining based flow cytometry analysis (reference value: 3.88%). It is filed as functional. The conditions noted are these: time 4 day.
Data set [19] has as its system MDA-MB-231. The data set is described as follows: Induction of apoptosis in human MDA-MB-231 cells assessed as late apoptotic cells at 1 uM incubated for 4 days by Annexin V-FITC/PI staining based flow cytometry analysis (reference value: 0.81%). The data set is classed as functional. Particulars: time 4 day.
Data set [20] relates to MDA-MB-231. The data set is described as follows: Induction of apoptosis in human MDA-MB-231 cells assessed as dead cells at 1 uM incubated for 4 days by Annexin V-FITC/PI staining based flow cytometry analysis (reference value: 0.72%). It is filed as functional. Particulars: time 4 day.

Hepatocyte growth factor receptor, sequence (P08581 whole entry): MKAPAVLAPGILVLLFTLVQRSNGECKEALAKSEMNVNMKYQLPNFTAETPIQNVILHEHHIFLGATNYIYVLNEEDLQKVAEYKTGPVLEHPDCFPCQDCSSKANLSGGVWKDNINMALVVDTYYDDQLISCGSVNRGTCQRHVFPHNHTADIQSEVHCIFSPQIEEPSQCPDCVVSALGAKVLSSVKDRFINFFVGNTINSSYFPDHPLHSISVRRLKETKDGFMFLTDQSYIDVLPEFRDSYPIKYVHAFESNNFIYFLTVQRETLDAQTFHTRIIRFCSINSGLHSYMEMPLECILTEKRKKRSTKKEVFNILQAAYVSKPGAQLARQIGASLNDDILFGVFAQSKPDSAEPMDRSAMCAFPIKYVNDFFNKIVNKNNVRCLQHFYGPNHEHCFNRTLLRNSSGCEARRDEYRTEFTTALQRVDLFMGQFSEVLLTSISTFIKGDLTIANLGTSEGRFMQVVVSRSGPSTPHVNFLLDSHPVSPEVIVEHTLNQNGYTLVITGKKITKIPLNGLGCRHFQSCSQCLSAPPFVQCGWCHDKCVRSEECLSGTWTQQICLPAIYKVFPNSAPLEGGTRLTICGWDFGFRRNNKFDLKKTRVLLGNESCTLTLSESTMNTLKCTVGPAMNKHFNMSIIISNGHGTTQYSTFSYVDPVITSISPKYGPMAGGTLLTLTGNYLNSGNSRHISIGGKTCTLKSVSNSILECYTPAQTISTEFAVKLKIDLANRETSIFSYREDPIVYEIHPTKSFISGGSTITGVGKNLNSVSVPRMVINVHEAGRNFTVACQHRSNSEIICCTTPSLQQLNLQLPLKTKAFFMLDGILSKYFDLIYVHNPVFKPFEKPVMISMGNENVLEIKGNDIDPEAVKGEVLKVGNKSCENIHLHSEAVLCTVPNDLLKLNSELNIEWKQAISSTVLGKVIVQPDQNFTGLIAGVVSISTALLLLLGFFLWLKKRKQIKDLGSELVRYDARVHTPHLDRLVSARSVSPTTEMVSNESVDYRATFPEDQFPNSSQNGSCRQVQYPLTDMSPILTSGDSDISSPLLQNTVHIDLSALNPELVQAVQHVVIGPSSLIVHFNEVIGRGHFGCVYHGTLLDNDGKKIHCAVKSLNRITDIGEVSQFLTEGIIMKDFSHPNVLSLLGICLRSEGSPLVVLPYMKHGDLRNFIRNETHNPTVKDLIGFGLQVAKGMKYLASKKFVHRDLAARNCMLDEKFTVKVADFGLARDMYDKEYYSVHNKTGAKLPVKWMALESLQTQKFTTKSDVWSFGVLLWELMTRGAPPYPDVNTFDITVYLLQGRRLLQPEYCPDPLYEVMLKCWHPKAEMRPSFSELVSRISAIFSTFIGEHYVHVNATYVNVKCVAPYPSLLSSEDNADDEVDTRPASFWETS

On to `O=C(c1cc(Cc2n[nH]c(=O)c3ccccc23)ccc1F)N1CCN(c2ccc3c(OCCn4nc(-c5cccnc5)ccc4=O)ccnc3c2)CC1`, for which the IC50 in [1] turned out to be 3.3 nM; in data set [2], 32.2 nM; in data set [3], 45 nM; in [4], 170 nM; in [5], 4570 nM; in [6], 5330 nM. Moreover, the “Ratio IC50” value came to 680 in data set [7]; 54 in [9]; 26 in data set [10]; 4 in data set [11]; 10 in [12]. Besides, the IC50 at 72 h in data set [8] was determined as 8730 nM. The Activity stood at 78.5% in data set [13]; 8.46% in [14]; 8.09% in [15]; 5% in data set [16]; 67.2% in data set [17]; 15.8% in data set [18]. The Activity in [19] stood at 10.6%; in [20], 6.37%.
